# Data published in patent US10711008B2, “Indoline analogs and uses thereof” (Oncternal Therapeutics, Inc., priority 2016, dated 2020).
# pIC50: −log10 of the molar value.
# Key:
# Format in all cases: cell-based, human
# Settings in all cases: 3 days with compound at 0.02 to 5 μM, CCK-8, A450, 50% inhibition of cell viability
# [1] = system: TC71 (Type 1, 7/6) cells (Ewing Sarcoma cell line); assay: Cell growth inhibition, modified tetrazolium salt assay (CCK-8 kit), TC71 cells
# Description: (§1) A modified tetrazolium salt assay using the CCK-8 kit (Sigma-Aldrich; St Louis, Mo.) was used to measure the inhibition of human tumor cell growth. Tumor cells (5000-7500 per well) were added to 96 well plates and allowed to attach for 4-5 hours. Compounds were serially diluted and added in triplicate at a concentration of 0.02 to 5 μM. DMSO was included as a vehicle control. Cells were incubated in the presence of compound for 3 days. After incubation CCK-8 reagent was added to each well and incubated for 2-4 hours. Viable cells were quantitated spectrophotometrically at a wavelength of 450 nm. Percent viability of each sample was calculated from the A450 values as follows: % viability=(A450 nm sample/A450 nm DMSO-treated cells×100). The IC50 was defined as the concentration that gave rise to 50% inhibition of cell viability. IC50 activities of particular compounds were determined using SKES (type 2, 7/5) cells (Ewing Sarcoma cell line), TC71 (Type 1, 7/6) cells (Ewing Sarcoma cell line), and A4573 (Type 3, 10/6) cells (Ewing Sarcoma cell line). […] TK-216 is a YK-4-279 clinical derivative that is in phase 1 for patients with relapsed or refractory Ewing sarcoma. Preclinical testing has been conducted for TK-216 in lymphoma models. Test results for the analogs were compared to those for TK-216 and YK-4-279.
# [2] = system: SKES (type 2, 7/5) cells (Ewing Sarcoma cell line); assay: Cell growth inhibition, modified tetrazolium salt assay (CCK-8 kit), SKES cells
# Description: as §1
# [3] = system: A4573 (Type 3, 10/6) cells (Ewing Sarcoma cell line); assay: Cell growth inhibition, modified tetrazolium salt assay (CCK-8 kit), A4573 cells
# Description: as §1
SMILES,"pIC50 ([1]; Homo sapiens, TC-71, 72 h)","pIC50 ([2]; Homo sapiens, 72 h)","pIC50 ([3]; Homo sapiens, 72 h)",pIC50 [1],pIC50 [2],pIC50 [3]
"COc1ccc(C(=O)CC2(O)C(=O)Nc3c(Cl)ccc(Cl)c32)cc1 (stereo not drawn) [YK-4-279, 4,7-dichloro-3-hydroxy-3-(2-(4-methoxyphenyl)-2-oxoethyl)indolin-2-one, reference compound]",> 5.30,> 5.30,> 5.30,–,–,–
O=C(CC1(O)C(=O)Nc2c(Cl)ccc(Cl)c21)c1ccc(OC(F)F)cc1 (stereo not drawn) [TK Analog 4],< 5.30,< 5.30,< 5.30,–,–,–
"O=C(CC1(O)C(=O)Nc2c(Cl)ccc(Cl)c21)c1ccc(C2CC2)cc1 (stereo not drawn) [TK-216-2, reference compound]",–,–,–,> 5.30,> 5.30,> 5.30
COc1ccc(C(=O)CC2C(=O)Nc3c(Cl)ccc(Cl)c32)cc1 (stereo not drawn) [TK Analog 6],> 5.30,> 5.30,> 5.30,–,–,–
O=C(CC1(O)C(=O)Nc2c(Cl)ccc(Cl)c21)c1ccc(C2CC2)s1 (stereo not drawn) [TK Analog 22],< 5.30,> 5.30,< 5.30,–,–,–
O=C(CC1(O)C(=O)Nc2c(Cl)ccc(Cl)c21)c1ccc2ccccc2c1 (stereo not drawn) [TK Analog 19],> 5.30,> 5.30,> 5.30,–,–,–
COc1ccc2c(CC3(O)C(=O)Nc4c(Cl)ccc(Cl)c43)nsc2c1 (stereo not drawn) [TK Analog 18],< 5.30,> 5.30,< 5.30,–,–,–
COc1ccc(C(=O)CC2(N)C(=O)Nc3c(Cl)ccc(Cl)c32)cc1 (stereo not drawn) [TK Analog 8],< 5.30,> 5.30,< 5.30,–,–,–
NC1(c2ccc(C(=O)CC3(O)C(=O)Nc4c(Cl)ccc(Cl)c43)cc2)CC1 (stereo not drawn) [TK Analog 3],< 5.30,> 5.30,< 5.30,–,–,–
CNC(=O)Oc1ccc(C(=O)CC2(O)C(=O)Nc3c(Cl)ccc(Cl)c32)cc1 (stereo not drawn) [TK Analog 13],< 5.30,< 5.30,< 5.30,–,–,–
COc1ccc(C(=O)CC2(F)C(=O)Nc3c(Cl)ccc(Cl)c32)cc1 (stereo not drawn) [TK Analog 7],> 5.30,> 5.30,> 5.30,–,–,–
O=C(CC1(O)C(=O)Nc2c(Cl)ccc(Cl)c21)c1ccc2[nH]ccc2c1 (stereo not drawn) [TK Analog 11],> 5.30,> 5.30,> 5.30,–,–,–
O=C(CC1(O)C(=O)Nc2c(Cl)ccc(Cl)c21)c1cc(C2CC2)cs1 (stereo not drawn) [TK Analog 23],< 5.30,< 5.30,< 5.30,–,–,–
COc1ccc2c(cnn2CC2(O)C(=O)Nc3c(Cl)ccc(Cl)c32)c1 (stereo not drawn) [TK Analog 16],< 5.30,> 5.30,< 5.30,–,–,–
O=C(CC1(O)C(=O)Nc2c(Cl)ccc(Cl)c21)c1ccc(C2CC2)nc1 (stereo not drawn) [TK Analog 20],< 5.30,< 5.30,< 5.30,–,–,–
COc1ccc2nn(CC3(O)C(=O)Nc4c(Cl)ccc(Cl)c43)cc2c1 (stereo not drawn) [TK Analog 16A],< 5.30,< 5.30,< 5.30,–,–,–

# Continued, values first:
"pIC50 ([1]; Homo sapiens, TC-71, 72 h)","pIC50 ([2]; Homo sapiens, 72 h)","pIC50 ([3]; Homo sapiens, 72 h)",pIC50 [1],pIC50 [2],pIC50 [3],SMILES
> 5.30,> 5.30,> 5.30,–,–,–,O=C(CC1(O)C(=O)Nc2c(Cl)ccc(Cl)c21)c1ccc(C2(F)CC2)cc1 (stereo not drawn) [TK Analog 2]
< 5.30,< 5.30,< 5.30,–,–,–,C#Cc1ccc(C(=O)CC2(O)C(=O)Nc3c(Cl)ccc(Cl)c32)cc1 (stereo not drawn) [TK Analog 5]
> 5.30,> 5.30,> 5.30,–,–,–,COc1ccc(C(=O)CC2(O)C(=O)Nc3c(Cl)ccc(Cl)c32)c(F)c1 (stereo not drawn) [TK Analog 15A]
> 5.30,> 5.30,> 5.30,–,–,–,O=C(CC1(O)C(=O)Nc2c(Cl)ccc(Cl)c21)c1ccc2sccc2c1 (stereo not drawn) [TK Analog 10]
< 5.30,> 5.30,< 5.30,–,–,–,O=C(CC1(O)C(=O)Nc2c(Cl)ccc(Cl)c21)c1ccc2occc2c1 (stereo not drawn) [TK Analog 9]
< 5.30,< 5.30,< 5.30,–,–,–,CN(C)c1ccc(-c2cc3c(nn2)[nH]c2c(Cl)ccc(Cl)c23)cc1 [TK Analog 14]
< 5.30,< 5.30,< 5.30,–,–,–,O=C(CC1(O)C(=O)Nc2c(Cl)ccc(Cl)c21)c1csc(C2CC2)c1 (stereo not drawn) [TK Analog 24]
< 5.30,< 5.30,< 5.30,–,–,–,O=C(CC1(O)C(=O)Nc2c(Cl)ccc(Cl)c21)c1ccc(C2CC2)cn1 (stereo not drawn) [TK Analog 21]
< 5.30,< 5.30,< 5.30,–,–,–,COc1ccc2c(CC3(O)C(=O)Nc4c(Cl)ccc(Cl)c43)noc2c1 (stereo not drawn) [TK Analog 17]
